Literature values in publication PMC9598925, “Synthetic Amphipathic β-Sheet Temporin-Derived Peptide with Dual Antibacterial and Anti-Inflammatory Activities” (Antibiotics, 2022).
Read-outs that look alike come from different tables or passages of the source.

Experiments:
[1] = tested on: zymosan-induced peritonitis; conditions: cited from earlier work
[2] = LUVs DOPG/CL, cited from earlier work
Protocol: LUVs composed of DOPG/CL (58/42 ratio in moles) and DOPG/DOPE/CL ([…] ratio in moles) were used to mimic Gram-positive and Gram-negative cell membranes, respectively. LUVs were titrated with different peptide concentrations of 5, 10, 15, […], 30, and 50 μM. […] In contrast, the peptide [DLeu^9, DLys^10]TL progressively oligomerized in LUVs (DOPG/CL) as described in Bellavita et al.; in fact, it was partially aggr ...

B. megaterium Bm11 = conditions: lead peptide, previous works ref 27, 41; cited from earlier work
Description: (§1) Table 2 MICs values of peptide [Nle^1, DLeu^9, DLys^10]TL in comparison with [DLeu^9, DLys^10]TL on selected Gram-positive and Gram-negative strains. | column: MIC Values (μM) / [DLeu^9, DLys^10]TL *

[3] = tested on: K. pneumoniae ATCC BAA-1705; conditions: lead peptide, previous works ref 27, 41; cited from earlier work
Description: as §1

S. aureus ATCC 25923 = conditions: lead peptide, previous works ref 27, 41; cited from earlier work
Description: as §1

E. coli ATCC 25922 = conditions: lead peptide, previous works ref 27, 41; cited from earlier work
Description: as §1

A. baumannii ATCC 19606 = conditions: lead peptide, previous works ref 27, 41; cited from earlier work
Description: as §1

[4] = tested on: S. epidermidis ATCC 12228; conditions: lead peptide, previous works ref 27, 41; cited from earlier work
Description: as §1

P. aeruginosa ATCC 27853 = conditions: lead peptide, previous works ref 27, 41; cited from earlier work
Description: as §1

[5] = 10 μM peptide; LUVs DOPG/CL, ANTS/DPX; cited from earlier work
Protocol: In this study, we evaluated the membranolytic activity of analogue [Nle^1, DLeu^9, DLys^10]TL in presence of LUVs mimicking Gram-positive and Gram-negative membranes by using ANTS/DPX leakage assay. […] Indeed, after the treatment with 10 μM of [Nle^1, DLeu^9, DLys^10]TL, we observed ~60% of LUVs leakage in com ...

[6] = tested on: J774A.1 murine macrophage cells; conditions: highest concentration of 25 μM; previous work of the authors; cited from earlier work
HaCaT cells = conditions: highest concentration of 25 μM; previous work of the authors; cited from earlier work
[7] = range of concentrations 1 μM–200 μM; cited from earlier work
Description: The impact of Nle on the aggregation propensity was studied in solution and in presence of large unilamellar vesicles (LUVs) mimicking Gram-positive and Gram-negative membranes. The aggregation in aqueous solution was monitored using Nile Red (NR) as a fluorescent probe. […] The introduction of the Nle residue conferred to peptide [Nle^1, DLeu^9, DLys^10]TL a low propensity to aggregate in aqueous solution as shown ...

[8] = LUVs mimicking Gram-positive and Gram-negative membranes; cited from earlier work
Description: The molecular conformation of [Nle^1, DLeu^9, DLys^10]TL was investigated by circular dichroism (CD) spectroscopy both in LUVs made of DOPG/CL and DOPG/DOPE/CL (Figure 3, panel A). […] In contrast, the introduction of Nle induced changes in molecular conformation, determining the formation of β-aggregates.

FVPWFSKFlkRIL [[DLeu^9, DLys^10]TL]
anti-inflammatory activity in vivo [1]: significant anti-inflammatory activity | level of pro-inflammatory cytokines IL-6, MCP-1 and TNF-α [1]: reduced the level of pro-inflammatory cytokines | aggregation (ThT) ([2]; 20 μM peptide): ~ 56% | aggregation (ThT) ([2]; 50 μM peptide): completely aggregated | MIC (B. megaterium Bm11): 3.12 µM | MIC [3]: 12.5 µM | MIC (S. aureus ATCC 25923): 6.25 µM | MIC (E. coli ATCC 25922): 12.5 µM | MIC (A. baumannii ATCC 19606): 6.25 µM | MIC [4]: 3.12 µM | MIC (P. aeruginosa ATCC 27853): 12.5 µM | LUVs leakage [5]: ~ 23% | cytotoxicity on murine macrophages [6]: not cytotoxic | cytotoxicity on human keratinocytes (HaCaT cells): not cytotoxic | aggregation in solution [7]: unable to aggregate in solution | molecular conformation (CD) [8]: helical aggregates
